Among the data in US20210379100A1, “USE OF FUNCTIONALIZED CALCIUM CARBONATE AS ACTIVE INGREDIENT” (OMYA INTERNATIONAL AG, priority 2018, published 2021) are d50 and d98 values, retold here.

A short description of the data set: Particle size distribution (Malvern Mastersizer 3000 laser diffraction / Sedigraph sedimentation). The class given is physicochemical.

Text: The “particle size” of all particulate materials disclosed herein, with the exception of ground calcium carbonate and precipitated calcium carbonate, is described as volume-based particle size distribution dx(vol). Therein, the value dx(vol) represents the diameter relative to which x % by volume of the particles have diameters less than dx(vol). This means that, for example, the d20(vol) value is the particle size at which 20 vol % of all particles are smaller than that particle size. The d50(vol) value is thus the volume median particle size, i.e. 50 vol % of all particles are smaller than that particle size and the d98(vol) value, referred to as volume-based top cut, is the particle size at which 98 vol % of all particles are smaller than that particle size. […]
All particle sizes described herein, with the exception of the particle sizes of the ground calcium carbonate that was used for the production of the functionalized calcium carbonate and that of precipitated calcium carbonate, refer to the volume-based particle size distribution dx(vol). The volume-based median particle size d50(vol) and top cut d98(vol) are evaluated using a Malvern Mastersizer 3000 Laser Diffraction System (Malvern Instruments Plc., Great Britain). The raw data obtained by the measurement is analyzed using the Fraunhofer theory. […]

Compound `O.O.O.O.O=C([O-])CC(O)(CC(=O)[O-])C(=O)[O-].O=C([O-])CC(O)(CC(=O)[O-])C(=O)[O-].[Ca+2].[Ca+2].[Ca+2]` [Calcium citrate tetrahydrate] came in with a d50 (median particle size) of 6.83 μm. The compound also had a d98 (top cut particle size) of 80 μm.
